Consider 5 compounds from PMC12921516 (ACS Bio & Med Chem Au, 2025).

The structures appear in SMILES notation. Where two headings read alike, the source gives them in different places.

Series [1] deals with T1, hPTP1B1–400 (Homo sapiens, UniProt P18031).
T1 construct: h PTP1B 1–400 IC 50 (μM ± S.D); made in house
T1 sequence (P18031 1-400): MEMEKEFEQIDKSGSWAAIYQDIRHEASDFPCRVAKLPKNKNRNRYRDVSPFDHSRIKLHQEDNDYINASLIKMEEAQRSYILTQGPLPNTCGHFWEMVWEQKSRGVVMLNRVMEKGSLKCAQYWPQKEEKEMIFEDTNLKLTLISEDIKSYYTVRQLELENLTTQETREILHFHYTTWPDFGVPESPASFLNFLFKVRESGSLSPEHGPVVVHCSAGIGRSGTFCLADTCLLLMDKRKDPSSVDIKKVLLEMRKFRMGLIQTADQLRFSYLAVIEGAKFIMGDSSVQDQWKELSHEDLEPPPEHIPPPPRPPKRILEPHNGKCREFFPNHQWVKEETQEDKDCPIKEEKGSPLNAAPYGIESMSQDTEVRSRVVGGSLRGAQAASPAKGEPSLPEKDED
As to the kind of experiment: Enzymatic kinetics studies (Lineweaver–Burk, model fitting). The conditions noted are these: for inhibition type: hPTP1B1–400, best fit model; for Km / Vmax: hPTP1B1–400 with inhibitor. In kind it is biochemical. The procedure: Kinetic analyses were conducted using varying concentrations of substrate and inhibitor.
Five increasing concentrations of each inhibitor were tested, according to their previously determined IC50 values. The negative control was prepared by omitting the inhibitor in the presence of the enzyme and substrate. The Supporting Information includes detailed eqs (E1–E5) used to determine the kinetic parameters and mechanisms involved in PTP1B inhibition.
Equation 1 was used to obtain enzyme kinetic parameters by fitting data to the Michaelis-Menten model (Origin Pro
The equations defined for the following non-linear inhibition models were used to determine the mechanism of
PTP1B inhibition: competitive (E2), non-competitive (E3), uncompetitive (E4), and mixed (E5) (Origin Pro 2018 (64
(1+ ( ))(x05nh ) + (1+ ( )) (x05 nh)
Vmax is the maximum velocity, x is the substrate concentration, i is the inhibitor concentration, nh is the number of
Hill. Ki is the inhibition constant, and Km is the Michaelis constant.

Another series concerns hPTP1B1–393. Particulars: reported elsewhere; cited from earlier work.
In series [2] the target is T2, hTCPTP1–415 (Homo sapiens, UniProt P17706).
T2 construct: h TCPTP 1–415 IC 50 (μM ± S.D); made in house
T2 sequence (P17706 1-415): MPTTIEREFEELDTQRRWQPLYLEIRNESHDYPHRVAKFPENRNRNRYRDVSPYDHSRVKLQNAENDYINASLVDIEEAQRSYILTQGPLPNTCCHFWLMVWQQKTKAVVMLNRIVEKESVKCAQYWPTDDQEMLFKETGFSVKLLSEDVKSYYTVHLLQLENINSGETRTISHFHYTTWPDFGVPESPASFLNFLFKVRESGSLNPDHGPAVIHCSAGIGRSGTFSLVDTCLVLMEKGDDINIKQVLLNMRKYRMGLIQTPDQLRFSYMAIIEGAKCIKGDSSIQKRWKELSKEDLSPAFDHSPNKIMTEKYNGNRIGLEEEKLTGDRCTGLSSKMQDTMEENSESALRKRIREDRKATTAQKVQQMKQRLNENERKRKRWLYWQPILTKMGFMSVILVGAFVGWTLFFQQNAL
As to the kind of experiment: TCPTP inhibitory activity. In kind it is biochemical. The conditions noted are these: pNPP substrate; tested up to 100 μM. The procedure:
The effectiveness and safety of a PTP1B inhibitor primarily depend on its selectivity, given that protein tyrosine phosphatases share significant structural homology within their catalytic domains. […] Ertiprotafib was also included in this study.
(§1) Aliquots of 0–10 μL of the test compounds (triplicate) were taken and incubated for 15 min at 37 °C with 85 μL of Tris buffer solution (50 mM, pH 6.8) containing PTP1B enzyme and 5 μL of p-nitrophenyl phosphate substrate (pNPP, 10 mM). The absorbance of the hydrolysis product, p-nitrophenol (pNP), was measured at 405 nm using a 96-microplate absorbance reader (Accuris SmartReader 96). The inhibitory activity was determined according to eq . %enzyme=(A405b/A405c)×100 1 Where: % enzyme is the percentage of inhibition for PTP1B or TCPTP
(§2) The IC50 was calculated using regression analysis, eq : %inhibition=A100/1+(I/IC50)^s 2 Where: A100: Maximum inhibition

For another series, the system named is HFF-1 cells. The series can be described thus: Cytotoxicity, Sulforhodamine B assay. In kind it is cell-based, human. The conditions noted are these: HFF-1 proliferation, 48-h incubation, 0.78 μM to 100 μM. How it is done:
Given the significance of a drug candidate’s toxicity in relation to its inhibition potential, a cytotoxicity assay was conducted using Normal Human Foreskin Fibroblasts (HFF-1).
All assays were carried out in triplicate. Cell proliferation was determined by the Sulforhodamine B assay, and the half-maximal cytotoxic concentration (CC50) was determined by Probit analysis.
(Sulforhodamine B stains cellular protein and so reports cell mass.)

Series [3] has as its system STZ-induced diabetic rats. Particulars: earlier study of the group; cited from earlier work.
For series [4], the target named is T1, hPTP1B1–400. The series can be described thus: PTP1B inhibition, pNPP hydrolysis, long form. In kind it is biochemical. Particulars: pNPP substrate, 15 min 37 °C, pH 6.8; ± S.D. How it is done:
The inhibitory activity of PTP1B was assessed using the long form of the PTP1B enzyme (hPTP1B1–400). This enzyme comprises a highly conserved N-terminal catalytic domain, known as the PTP domain (PTP1B1–300), in addition to an intrinsically disordered regulatory domain (PTP1B301–400).
The IC50 values obtained from these tests are detailed in Table .
as §1, §2

The target of series [5] is T1, hPTP1B1–400. Particulars: footnote c: IC50 values retrieved from the reference; previously tested by our group; cited from earlier work.
Series [6] has as its target T2, hTCPTP1–415. Particulars: read-out: hTCPTP1–415 IC50, cited from earlier work.
For the next series, the target named is T3, hPTP1B1–285 (Homo sapiens, UniProt P18031).
T3 construct: h PTP1B 1–285 IC 50 (μM ± S.D); made in house
T3 sequence (P18031 1-285): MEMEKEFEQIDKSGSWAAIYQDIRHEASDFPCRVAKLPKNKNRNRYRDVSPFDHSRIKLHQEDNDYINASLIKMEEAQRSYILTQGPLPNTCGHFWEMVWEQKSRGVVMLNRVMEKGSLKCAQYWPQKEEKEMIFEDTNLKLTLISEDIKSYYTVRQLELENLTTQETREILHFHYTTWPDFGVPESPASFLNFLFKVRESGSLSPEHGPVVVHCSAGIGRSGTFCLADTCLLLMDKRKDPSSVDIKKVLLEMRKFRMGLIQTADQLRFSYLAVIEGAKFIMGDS
The conditions noted are these: footnote c: IC50 values retrieved from the reference; cited from earlier work.

Series [7] has as its system insulin-resistant HepG2 cells. As to the kind of experiment: Western blotting, insulin-resistant HepG2 model. In kind it is cell-based, human. Particulars: 24 h. The procedure:
(§3) HepG2 cells were obtained directly from ATCC (HB-8065) and cultured in DMEM with low glucose, supplemented with fetal bovine serum, 100 U/mL penicillin G, and […] streptomycin. The media was freshly prepared and sterilized by filtration. Cells were maintained with a maximum of 10 passages before being discarded. For cell counting, the cells were washed twice with phosphate-buffered saline (PBS), trypsinized, and counted using a Neubauer chamber. For the insulin-resistant model, 75,000 cells per well were seeded in 6-well plates at 37 °C in 5% CO2 and cultured for 72 h. Subsequently, insulin (0.1 μM) was added to induce insulin resistance for 24 h. After this period, inhibitors were incubated for 24 h, followed by a final 30 min insulin stimulation (0.1 μM) before protein extraction. For the normal model, 75,000 cells per well were seeded in 6-well plates at 37 °C in 5% CO2 and cultured for 96 h. After that, the cells were incubated with the inhibitors for 24 h, followed by protein extraction.
(§4) Treated cells were washed twice with 1 mL of PBS, and proteins were extracted using 300 μL of a buffer solution containing 10% sodium deoxycholate in 10% TEAB, supplemented with a protease and phosphatase inhibitor cocktail. The extracts were heated at 80 °C for 5 min and dissociated by repeated passages through an insulin syringe. The cell extracts were centrifuged at 15,000 rpm for 15 min at 4 °C, and the supernatant was collected. Protein quantification was performed using the bicinchoninic acid assay, and aliquots were prepared for Western blotting. SDS-PAGE was conducted, and proteins were transferred onto a nitrocellulose membrane. The membrane was blocked with 10% skim milk in TBST for 1 h and incubated overnight with primary antibodies (1:400 dilution). Secondary antibodies conjugated to horseradish peroxidase were diluted 1:2,000, and the membranes were incubated for 1 h at room temperature. Blots were visualized using the ChemiDoc MP (Bio-Rad), and densitometric analysis was performed with ImageJ (U.S. National Institutes of Health). Statistical analyses were conducted using GraphPad Prism 8.0.
resistance model in HepG2 cells . a) Western blotting representative analysis (n=3) of PTP1B, p -AKT, p-IRS1 and p-STAT3 levels
of HepG2 cells treated with the compounds at 24 h of treatment. β-actin was employed as loading control. b) Densitometric
analysis of western blot images employing ImageJ analysis software. Bar graphs represent the mean ± SEM of normalized values.
The control levels were set to 1. Asterisks indicate statistical significance according to the Dunn test. p* < 0.05.
(§5) (1 picture or pasted object on this page, not shown here)
Background: Immunoblotting shows a protein as a band on a membrane.

For series [8], the system named is HepG2 cells. The series can be described thus: Cell viability of HepG2 with crystal violet. In kind it is cell-based, human. Particulars: 1, 10, and 30 µM for 24, 48 and 72 h. How it is done: A 96-well plate was seeded with 3,000 HepG2 cells per well and incubated for 72 h. Subsequently, the cells were treated with test compounds at various concentrations for 24, 48, and 72 h. After incubation, the medium was removed, and 100 μL of 1% glutaraldehyde was added for 15 min. The glutaraldehyde was then removed, and 50 μL of 0.5% crystal violet (dissolved in 25% methanol) was added for 30 min. The crystal violet staining solution was subsequently removed, and the plate was thoroughly rinsed with tap water. The precipitate was dissolved in a 10% acetic acid solution, mixed for 15 min, and the absorbance was measured at 590 nm using a plate reader (xMark Microplate Spectrophotometer, Bio-Rad).
Figure S48. Cell viability assessment by crystal violet staining. HepG2 cell viability was evaluated after treatment with the respective compounds at concentrations of 1 , 10, and 30 µM for 24 , 48 and 72 hours. Bar graphs represent mean ± SEM. No significant differences were detected using ANOVA. […]

Series [9] relates to HepG2 cells. As to the kind of experiment: Western blotting, HepG2 normal model. In kind it is cell-based, human. Particulars: 24 h. The procedure: as §3, §4
compounds at 24 h of treatment. β-actin was employed as loading control. b) Densitometric analysis of western blot images
employing ImageJ analysis software. Bar graphs represent the mean ± SEM of normalized values. The control levels were set to
1. Asterisks indicate statistical significance according to the Dunn test. p* < 0.05
as §5

For series [10], the target named is T1, hPTP1B1–400. As to the kind of experiment: PTP1B inhibition, pNPP hydrolysis, long form. In kind it is biochemical.

In general, Km refers to the substrate concentration at which the rate is half of its maximum. Broadly, the Vmax is the rate approached at saturating substrate. One may read the IC50 as the concentration that inhibits the measured activity by half. On to `Cc1cc(-c2c3ccccc3c(Br)c3sc(C)c(C)c23)cc(C)c1O[C@H](Cc1ccccc1)C(=O)O` [Ertiprotafib, reference compound], for which, at hPTP1B1–400 [1], the inhibition type result is listed as “uncompetitive”, the Km was 940 ± 190 µM and the Vmax was determined as 1.71 ± 0.24 mM/min. Moreover, the inhibition type result in the series with hPTP1B1–393 is listed as “noncompetitive inhibition”. On hTCPTP1–415 [2], this compound registered an IC50 greater than 100 µM.
In general, CC50 refers to the concentration giving 50% cytotoxicity. Low readings indicate harm at low concentration, high ones better tolerance by the cells. The compound `CC1(C)c2[nH]c3ccc(C(F)(F)F)cc3c2C[C@]2(C)[C@H]3C(=O)C=C4[C@@H]5C[C@@](C)(C(=O)O)CC[C@]5(C)CC[C@@]4(C)[C@]3(C)CC[C@@H]12` [FC-114, reference compound] registered a CC50 in the series on HFF-1 cells of 59.5 ± 3 µM. Moreover, in [3], the antihyperglycemic effects entry is “superior antihyperglycemic effects compared to glibenclamide and acarbose, but did not outperform pioglitazone”. Further, half-maximal inhibition at hPTP1B1–400 [4] (IC50) required 1.75 ± 0.08 µM.
Take `O=C(O)C(=O)Nc1sc2c(c1C(=O)O)CCNC2` [TCS401]: the IC50 on hPTP1B1–400 [5] is 8.1 ± 1 µM; on hTCPTP1–415 [6] (footnote c: IC50 values retrieved from the reference, previously tested by our group), 6.7 ± 0.6 µM; on hPTP1B1–285, 12.4 ± 1 µM.
For `C[C@H]1[C@H](C)CC[C@]2(C(=O)O)CC[C@]3(C)C(=CC[C@@H]4[C@@]5(C)CC[C@H](O)C(C)(C)[C@@H]5CC[C@]43C)[C@H]12` [Ursolic acid], in series [7], the “AKT phosphorylation (p-AKT) levels” value was “did not show significant changes”; the PTP1B levels result is “neither metformin, ursolic acid, nor the GA derivatives significantly reduced PTP1B levels”; the p-IRS levels entry was “did not show significant changes”; the p-STAT3 levels result was “did not show significant changes”. Moreover, the HepG2 cell viability entry in the series on HepG2 cells [8] was “No significant differences”. Moreover, in the series with HepG2 cells [9], the “AKT phosphorylation (p-AKT) levels” value is listed as “did not show significant changes”; the PTP1B levels result is “neither metformin, ursolic acid, nor the GA derivatives significantly reduced PTP1B levels”; the p-IRS levels entry is recorded as “did not show significant changes”; the p-STAT3 levels result is reported as “did not show significant changes”. Also, at hPTP1B1–400 [1], the inhibition type entry is on record as “mixed-type”, the Km stood at 1700 ± 330 µM and the Vmax was 0.63 ± 0.08 mM/min. Also, on hPTP1B1–400 [1] (listed as ursolic acid), the inhibition type entry is reported as “mixed”. Moreover, the IC50 on hTCPTP1–415 [6] (footnote b: IC50 values retrieved from the reference) was greater than 400 µM.
Regarding `CC1(C)c2c(cnn2-c2ccc(C(=O)O)cc2)C[C@]2(C)[C@H]3C(=O)C=C4[C@@H]5C[C@@](C)(C(=O)O)CC[C@]5(C)CC[C@@]4(C)[C@]3(C)CC[C@@H]12` [compound 5e, (20β)-2′-(4-Carboxyphenyl)-11-oxo-2′H-oleana-2,12-dieno[3,2-c]pyrazol-29-oic Acid], at hPTP1B1–400 [10], the stability during evaluation result is “unstable and rapidly degraded during evaluation”.
